These results are taken from US20250361281A1, “AMYLIN RECEPTOR (hAMY3R) AGONISTS WITH IMPROVED CHEMICAL STABILITY” (GUBRA A/S, priority 2022, published 2025).

SMILES strings stand for the structures.

For data set [1] the following is noted: pH 7, background statement; cited from earlier work.
Data set [2] in a line: Physical stability of peptide analogues (Thioflavin T fibrillation). The data set is classed as physicochemical. The note with it: ThT fluorescence, 40° C., shaking, four days; pH 4 or pH 7 buffer. On the procedure: General Protocols for Determination of Physical Stability of Peptide Analogues
Peptides were dissolved in buffers (50 mM sodium acetate at pH 4 or 50 mM sodium phosphate at pH 7) and incubated for one hour. The samples were then divided into two replicates of 80 μl in a black 384 well plate (μ-clear, Greiner Bio-One) and mixed with Thioflavin T (ThT) to a final concentration of 4 μM. The plate was sealed and placed in a plate reader (CLARIOstar, BMG) where the temperature was set at 40° C. during the course of the experiment. The samples were further stressed by shaking the plate at 700 rpm (linear) for five minutes before every measurement. The fluorescence was measured every 10 min for four days by exciting the ThT at 450 nm and measuring the emission at 480 nm. For each peptide, the ThT signal over time was smoothened using Local Polynomial Regression fitting (LOESS) as implemented in the statistical programming environment R. For the smoothened data, the maximum ThT signal was normalized in percent between the maximum ThT signal for hAMY and the buffer background.

For `CC[C@H](C)[C@H](NC(=O)[C@@H]1CCCN1C(=O)CNC(=O)[C@H](Cc1ccccc1)NC(=O)[C@H](CC(N)=O)NC(=O)[C@H](CC(N)=O)NC(=O)[C@H](CO)NC(=O)[C@H](CO)NC(=O)[C@H](Cc1c[nH]cn1)NC(=O)[C@@H](NC(=O)[C@H](CC(C)C)NC(=O)[C@H](Cc1ccccc1)NC(=O)[C@H](CC(N)=O)NC(=O)[C@H](C)NC(=O)[C@H](CC(C)C)NC(=O)[C@H](CCCNC(=N)N)NC(=O)[C@H](CCC(N)=O)NC(=O)[C@@H](NC(=O)[C@H](C)NC(=O)[C@@H]1CSSC[C@H](NC(=O)[C@@H](N)CCCCN)C(=O)N[C@@H](CC(N)=O)C(=O)N[C@@H]([C@@H](C)O)C(=O)N[C@@H](C)C(=O)N[C@@H]([C@@H](C)O)C(=O)N1)[C@@H](C)O)C(C)C)C(=O)N[C@@H](CC(C)C)C(=O)N1CCC[C@H]1C(=O)N1CCC[C@H]1C(=O)N[C@H](C(=O)N[C@@H](CC(N)=O)C(=O)N[C@H](C(=O)NCC(=O)N[C@@H](CO)C(=O)N[C@@H](CC(N)=O)C(=O)N[C@H](C(=O)N[C@@H](Cc1ccc(O)cc1)C(N)=O)[C@@H](C)O)C(C)C)[C@@H](C)O` [Pramlintide], the “fibrillation at pH 7” value in data set [1] was “fibrillates”.

Consider `CC[C@H](C)[C@H](NC(=O)[C@H](CCC(N)=O)NC(=O)[C@H](Cc1c[nH]cn1)NC(=O)[C@H](C)NC(=O)[C@H](CC(C)C)NC(=O)[C@H](CCCCN)NC(=O)[C@H](CCC(N)=O)NC(=O)[C@@H](NC(=O)[C@@H](NC(=O)[C@@H]1CSSC[C@H](NC(=O)CN)C(=O)N[C@@H](CCCNC(=N)N)C(=O)N[C@@H](Cc2ccccc2)C(=O)NCC(=O)N[C@@H]([C@@H](C)O)C(=O)N1)[C@@H](C)O)C(C)C)C(=O)N[C@@H](Cc1ccc(O)cc1)C(=O)N[C@@H](CCC(N)=O)C(=O)N[C@@H](Cc1ccccc1)C(=O)N[C@H](C(=O)N[C@@H](CC(=O)O)C(=O)N[C@@H](CCCCN)C(=O)N[C@@H](CC(=O)O)C(=O)N[C@@H](CCCCN)C(=O)N[C@@H](CC(=O)O)C(=O)N[C@@H](CC(N)=O)C(=O)N[C@H](C(=O)N[C@@H](C)C(=O)N1CCC[C@H]1C(=O)N[C@@H](CCCNC(=N)N)C(=O)N[C@@H](CO)C(=O)N[C@@H](CCCCN)C(=O)N[C@H](C(=O)N[C@@H](CO)C(=O)N1CCC[C@H]1C(=O)N[C@@H](CCC(N)=O)C(=O)NCC(=O)N[C@@H](Cc1ccc(O)cc1)C(N)=O)[C@@H](C)CC)C(C)C)[C@@H](C)O` [SEQ ID NO: 1], for which the Fibril formation result in data set [2] is given as “No”. Further, in data set [1], the “fibrillation at pH 7” value is on record as “does not fibrillate”.

`CC[C@H](C)[C@H](NC(=O)[C@H](C)NC(=O)CNC(=O)[C@H](Cc1ccccc1)NC(=O)[C@H](CC(N)=O)NC(=O)[C@H](CC(N)=O)NC(=O)[C@H](CO)NC(=O)[C@H](CO)NC(=O)[C@H](Cc1c[nH]cn1)NC(=O)[C@@H](NC(=O)[C@H](CC(C)C)NC(=O)[C@H](Cc1ccccc1)NC(=O)[C@H](CC(N)=O)NC(=O)[C@H](C)NC(=O)[C@H](CC(C)C)NC(=O)[C@H](CCCNC(=N)N)NC(=O)[C@H](CCC(N)=O)NC(=O)[C@@H](NC(=O)[C@H](C)NC(=O)[C@@H]1CSSC[C@H](NC(=O)[C@@H](N)CCCCN)C(=O)N[C@@H](CC(N)=O)C(=O)N[C@@H]([C@@H](C)O)C(=O)N[C@@H](C)C(=O)N[C@@H]([C@@H](C)O)C(=O)N1)[C@@H](C)O)C(C)C)C(=O)N[C@@H](CC(C)C)C(=O)N[C@@H](CO)C(=O)N[C@@H](CO)C(=O)N[C@H](C(=O)N[C@@H](CC(N)=O)C(=O)N[C@H](C(=O)NCC(=O)N[C@@H](CO)C(=O)N[C@@H](CC(N)=O)C(=O)N[C@H](C(=O)N[C@@H](Cc1ccc(O)cc1)C(N)=O)[C@@H](C)O)C(C)C)[C@@H](C)O` [SEQ ID NO: 2]: the Fibril formation entry in data set [2] is “Yes”.
